# Reference: ChEMBL document CHEMBL1201862, “PubChem BioAssay data set” (2004)
#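 Dose response: 5 concentrations. Exposure: 48 h. Format: 96-well plates. Endpoint: linear interpolation; highest concentration if not reached. GI50 = concentration required for 50% inhibition of growth.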 Calls of active or inactive are those of the source. Cut-off read from the data, not from the text of the source: active = GI50 up to about 1.1 µM and inactive = higher.
# Experiments:
# Test in all cases: inhibition of tumour cell growth, NCI panel, 48 h
# Hs-578T = system: Hs-578T
# EKVX = system: EKVX
# OVCAR-8 = system: OVCAR-8
# HOP-62 = system: HOP-62
# CCRF-CEM = system: CCRF-CEM
# NCI-H23 = system: NCI-H23
# SNB-75 = system: SNB-75
# 786-0 = system: 786-0
# A498 = system: A498
# UACC-257 = system: UACC-257
# NCI-H522 = system: NCI-H522
# HOP-92 = system: HOP-92
# SF-539 = system: SF-539
# SK-MEL-28 = system: SK-MEL-28
# SK-MEL-5 = system: SK-MEL-5
# HT-29 = system: HT-29
# UO-31 = system: UO-31
# SF-295 = system: SF-295
SMILES,GI50 (Hs-578T),GI50 (EKVX),GI50 (OVCAR-8),GI50 (HOP-62),GI50 (CCRF-CEM),GI50 (NCI-H23),GI50 (SNB-75),GI50 (786-0),GI50 (A498),GI50 (UACC-257),GI50 (NCI-H522),GI50 (HOP-92),GI50 (SF-539),GI50 (SK-MEL-28),GI50 (SK-MEL-5),GI50 (HT-29),GI50 (UO-31),GI50 (SF-295)
O=C(/C=C/c1cc(F)ccc1F)OCCc1ccccc1,1.67 µM (inactive),> 100 µM (inactive),> 100 µM (inactive),> 100 µM (inactive),38.3 µM (inactive),> 100 µM (inactive),83.6 µM (inactive),89.3 µM (inactive),> 100 µM (inactive),> 100 µM (inactive),> 100 µM (inactive),40.6 µM (inactive),88.5 µM (inactive),> 100 µM (inactive),29.2 µM (inactive),43 µM (inactive),95.7 µM (inactive),–
CC1(C)[C@@H]2C[C@H]1C(Cc1ccc(C[C@H]3c4cc(-c5ccccn5)ncc4[C@H]4C[C@@H]3C4(C)C)cc1)c1cc(-c3ccccn3)ncc12 (stereo partly specified),> 100 µM (inactive),1.32 µM (inactive),0.678 µM (active),0.538 µM (active),0.619 µM (active),2.68 µM (inactive),59.8 µM (inactive),1.41 µM (inactive),2.36 µM (inactive),2.63 µM (inactive),7.14 µM (inactive),–,1.22 µM (inactive),3.54 µM (inactive),0.619 µM (active),1.44 µM (inactive),0.931 µM (active),1.22 µM (inactive)
COC1=C2CC(C)CC(OC)C(OC(=O)CN)[C@H](C)/C=C(\C)C(OC(N)=O)C(OC)/C=C\C=C(/C)C(=O)NC(=CC1=O)C2=O (stereo partly specified),3.79 µM (inactive),0.838 µM (active),0.94 µM (active),0.942 µM (active),0.299 µM (active),0.369 µM (active),–,0.429 µM (active),12.1 µM (inactive),0.359 µM (active),0.159 µM (active),0.163 µM (active),1.24 µM (inactive),0.161 µM (active),0.855 µM (active),0.306 µM (active),0.716 µM (active),3.84 µM (inactive)
C=C1C(=O)OC2/C=C(\C)CC/C=C(\C)CC(OC(=O)/C(=C/CO)CO)[C@@H]12 (stereo partly specified),27.2 µM (inactive),15.2 µM (inactive),1.98 µM (inactive),–,2.09 µM (inactive),13.7 µM (inactive),12.3 µM (inactive),4.84 µM (inactive),19 µM (inactive),7.85 µM (inactive),1.75 µM (inactive),4.93 µM (inactive),12.2 µM (inactive),15 µM (inactive),13 µM (inactive),7.41 µM (inactive),11.6 µM (inactive),70.8 µM (inactive)
NC(Cc1ccc(O)cn1)C(=O)O (stereo unspecified),4.19 µM (inactive),> 100 µM (inactive),> 100 µM (inactive),> 100 µM (inactive),–,> 100 µM (inactive),> 100 µM (inactive),> 100 µM (inactive),> 100 µM (inactive),> 100 µM (inactive),> 100 µM (inactive),> 100 µM (inactive),> 100 µM (inactive),> 100 µM (inactive),> 100 µM (inactive),> 100 µM (inactive),> 100 µM (inactive),> 100 µM (inactive)
Fc1cc2nc3n(c2cc1F)C(c1c(F)cccc1F)SC3 (stereo unspecified),50.1 µM (inactive),–,42 µM (inactive),67.9 µM (inactive),–,43.9 µM (inactive),31.4 µM (inactive),24.3 µM (inactive),29.8 µM (inactive),46.6 µM (inactive),24.9 µM (inactive),38.8 µM (inactive),39.4 µM (inactive),43 µM (inactive),17.3 µM (inactive),34.8 µM (inactive),37.8 µM (inactive),37.2 µM (inactive)
CCCn1cnc2c(/N=N/O)ncnc21,> 100 µM (inactive),> 100 µM (inactive),> 100 µM (inactive),> 100 µM (inactive),–,> 100 µM (inactive),> 100 µM (inactive),> 100 µM (inactive),> 100 µM (inactive),–,> 100 µM (inactive),> 100 µM (inactive),> 100 µM (inactive),> 100 µM (inactive),> 100 µM (inactive),> 100 µM (inactive),> 100 µM (inactive),–
Nc1nc(N)nc(-c2cnc3ccccc3c2)n1,> 100 µM (inactive),38.4 µM (inactive),> 100 µM (inactive),> 100 µM (inactive),13.4 µM (inactive),> 100 µM (inactive),85.7 µM (inactive),> 100 µM (inactive),> 100 µM (inactive),> 100 µM (inactive),> 100 µM (inactive),73.5 µM (inactive),> 100 µM (inactive),> 100 µM (inactive),–,–,> 100 µM (inactive),> 100 µM (inactive)
O=C(Nc1ccc(Cl)cc1)c1cc(S(=O)(=O)Nc2nnc3c(Cl)cc(C(F)(F)F)cn23)c(S)cc1Cl,46.5 µM (inactive),> 100 µM (inactive),> 100 µM (inactive),54.5 µM (inactive),> 100 µM (inactive),59.7 µM (inactive),–,> 100 µM (inactive),28.7 µM (inactive),> 100 µM (inactive),80 µM (inactive),> 100 µM (inactive),> 100 µM (inactive),> 100 µM (inactive),96.4 µM (inactive),51.9 µM (inactive),> 100 µM (inactive),44.6 µM (inactive)
C[C@H]1CC[C@@]2(NC1)O[C@H]1C[C@H]3[C@@H]4CC[C@H]5C[C@@H](O)CC[C@]5(C)[C@H]4CC[C@]3(C)[C@H]1[C@@H]2C,47 µM (inactive),> 100 µM (inactive),38.8 µM (inactive),18.7 µM (inactive),> 100 µM (inactive),85.5 µM (inactive),57.5 µM (inactive),39.9 µM (inactive),77.8 µM (inactive),> 100 µM (inactive),59.4 µM (inactive),52.6 µM (inactive),> 100 µM (inactive),–,90.4 µM (inactive),47.9 µM (inactive),> 100 µM (inactive),55.7 µM (inactive)
O=C(NC1(C(=O)O)CCCC1)c1ccccc1,> 100 µM (inactive),> 100 µM (inactive),> 100 µM (inactive),> 100 µM (inactive),> 100 µM (inactive),> 100 µM (inactive),–,> 100 µM (inactive),> 100 µM (inactive),> 100 µM (inactive),> 100 µM (inactive),> 100 µM (inactive),> 100 µM (inactive),> 100 µM (inactive),> 100 µM (inactive),> 100 µM (inactive),> 100 µM (inactive),> 100 µM (inactive)
O=C(O)CCSCc1ccc(I)cc1,> 100 µM (inactive),> 100 µM (inactive),> 100 µM (inactive),> 100 µM (inactive),> 100 µM (inactive),> 100 µM (inactive),72.4 µM (inactive),> 100 µM (inactive),> 100 µM (inactive),> 100 µM (inactive),> 100 µM (inactive),> 100 µM (inactive),–,> 100 µM (inactive),> 100 µM (inactive),> 100 µM (inactive),> 100 µM (inactive),> 100 µM (inactive)
CCCCN(c1ccccc1)c1ncnc2c1cnn2C,22.4 µM (inactive),31.8 µM (inactive),41.2 µM (inactive),38.8 µM (inactive),21.3 µM (inactive),30.1 µM (inactive),11.7 µM (inactive),53.3 µM (inactive),23.3 µM (inactive),28.7 µM (inactive),19.9 µM (inactive),25.7 µM (inactive),–,38.6 µM (inactive),> 100 µM (inactive),29.9 µM (inactive),40.6 µM (inactive),32.5 µM (inactive)
Oc1cc(-c2ccc3ccccc3c2)nc2ncccc12,9.35 µM (inactive),33.2 µM (inactive),23 µM (inactive),21.7 µM (inactive),7.64 µM (inactive),10.7 µM (inactive),11.5 µM (inactive),12.1 µM (inactive),7.23 µM (inactive),12.4 µM (inactive),4.02 µM (inactive),8.34 µM (inactive),6.95 µM (inactive),8.63 µM (inactive),–,4.16 µM (inactive),18.1 µM (inactive),–
COc1cccc2c1CCc1c(-c3ccc(F)cc3)cc(-c3ccc4ccccc4n3)nc1-2,> 100 µM (inactive),> 100 µM (inactive),> 100 µM (inactive),> 100 µM (inactive),> 100 µM (inactive),> 100 µM (inactive),> 100 µM (inactive),> 100 µM (inactive),> 100 µM (inactive),> 100 µM (inactive),> 100 µM (inactive),> 100 µM (inactive),> 100 µM (inactive),–,> 100 µM (inactive),> 100 µM (inactive),> 100 µM (inactive),> 100 µM (inactive)
Cc1cccc(/C=C2\CCCCCC2=O)c1,> 100 µM (inactive),> 100 µM (inactive),–,> 100 µM (inactive),28.8 µM (inactive),> 100 µM (inactive),> 100 µM (inactive),> 100 µM (inactive),> 100 µM (inactive),> 100 µM (inactive),> 100 µM (inactive),> 100 µM (inactive),–,> 100 µM (inactive),79.1 µM (inactive),> 100 µM (inactive),> 100 µM (inactive),> 100 µM (inactive)
